Patent US7416741B2, “Copper lowering treatment of inflammatory and fibrotic diseases” (The Regents of the University of Michigan, priority 2002, dated 2008)

Columns and labels:
[1] = system: vascular endothelial growth factor (VEGF); experiment: Retinopathy of prematurity in newborn mice; type: in vivo, mouse; conditions: hyperoxia then room air
Method: The present invention also contemplates the antiangiogenic therapeutic effects of TM in diseases of neovascularization besides cancer (e.g., animal models of retinopathy). In retinopathy of prematurity, newborn mice exposed to hyperoxia for five days develop a marked retinopathy after four days exposure to room air, with a peak of a major angiogenic stimulus, vascular endothelial growth factor (VEGF), at 24 hours.

[2] = system: animal model of renal fibrosis; experiment: Streptozotocin rat model of renal fibrosis; type: in vivo; conditions: Ex 7
Method: A study is carried out in an animal model of renal fibrosis. After kidney injury of almost any type, a diffuse interstitial fibrosis (believed to be due to over-activity of the TGFβ pathway) produces kidney failure. Rats are made diabetic by administering streptozotocin; renal fibrosis is typically well developed by 60 days after initiation of streptozotocin administration. TM therapy is initiated at varying times relative to streptozotocin administration in several groups of rats, and the results compared to control groups not receiving TM. Typically, at least three […] are present in each experimental group. In one group, TM therapy is initiated prior to streptozotocin administration, to determine whether TM therapy mitigates the pancreatic damage, as it mitigates hepatitis/cirrhosis in the concanavilin A mouse model described above. In other groups, TM is started after streptozotocin administration, at various times, to determine if it can mitigate the renal fibrosis that develops after streptozotocin administration.

Con A mouse model = experiment: Serum ALT in the Con A mouse model of liver damage; type: in vivo; conditions: for Serum ALT / Serum ALT, Mean: Ex 5 Exp 1; for Serum ALT: one mouse; for Serum ALT, Mean: after 4th injection
Method: A study was carried out in a mouse model of concanavilin A (Con A) production of liver cirrhosis. There were four experimental groups of several mice each. […] The Con A was injected intravenously once weekly into mice (0.3 mg/mouse/week), and produced a hepatitis, which is manifested by an increasing level of alanine transaminase (ALT) enzymes in the blood. The TM was given once daily by […] in a dose of 0.7 mg/mouse/day beginning 7 days prior to ConA treatment. During days 9 to 11 after Con A, the TM-treated mice received 1.2 mg of TM daily, to ensure adequate lowering of copper levels, and then received 0.7 mg daily for the duration of the study. A blood sample was obtained 28 days after ConA treatment, and the mice were sacrificed on the same day. Serum alanine transaminase (ALT) was measured in Sigma-Frankel (SF) units, where one unit is the formation of 0.000482 umoles of glutamate/minute at pH 7.5 and 25 ° C.
This example describes additional TM treatment experiments in the model Concanavalin (Con A) mouse model of liver damage. As described previously, in the Con A mouse model, intravenously administered Con A produces an inflammatory reaction and cell damage in the animal's liver that is marked by the release hepatic transaminase enzymes, such as […] (ALT), into the blood. Several different experiments are reported in this example
Twenty-four hours after each of the first three injections, one mouse from each group was bled, and serum ALT measured. In this experiment, TM was started in the TM treated mice before the first Con A injection. After the fourth injection of Con A, all the mice were bled for ALT and Cp measurements and the experiment terminated. The Cp levels in TM treated mice were 25-50% of non-TM treated animals.
In a second experiment, Con A was given in weekly injections for four weeks, prior to any treatment with TM. The objective was to see if TM treatment would be useful after considerable organ damage had been allowed to occur. Then, one group of Con A treated animals were initiated on TM therapy.

[3] = Body weight and hematocrit in the bleomycin mouse model; type: in vivo; conditions: for Weight / Hematocrit: sacrifice day 21; for protection against weight loss from bleomycin: Ex 1 Exp 2; for mean hematocrit: day 21
Method: Mice. Female CBA/J mice at 8-10 weeks of age were from the Jackson Laboratories (Bar Harbor, Me.). These mice weighed an average of 21.4 g at the start of experiments, with a standard deviation of 1.7 g.
Bleomycin treatment. This was undertaken on day 0 by endotracheal instillation through the oral cavity after exposure of the airway by pulling the tongue. Each mouse received 0.001 units of bleomycin (Bristol-Myers, Evansville, Ind.)/gm body weight in 30 μl of sterile saline, while control mice received an equal volume of sterile saline only.
TM treatment experiments. TM was given in 0.25 ml of water by intragastric gavage once daily, in the doses and times indicated in the various studies as described below.
There were four experimental groups of five to seven mice each. Group 1 received bleomycin, group 2 was a saline control, group 3 received bleomycin and TM therapy, and group 4 was a TM therapy control. The TM was given in a dose of 0.7 mg/mouse/day beginning 7 days prior to bleomycin treatment. During days 9 to 11 after bleomycin, the TM-treated mice received 1.2 mg of TM daily, to ensure adequate lowering of copper levels, and then received 0.7 mg daily for the duration of the study. The mice were sacrificed 21 days after bleomycin treatment.
In this experiment, the effect of TM at different doses after bleomycin administration was examined. Experimental groups of four bleomycin-treated and two to four control (non-bleomycin treated) mice were given varying doses of TM. Initially, All TM-treated mice received identical loading doses of 1.2 mg/mouse/day for 3 days (minus 5 to minus 3 days) prior to bleomycin administration. From that point on, groups of mice were given 0.3, 0.5, 0.7, or 0.9 mg of TM/mouse/day until sacrifice at day 21 after bleomycin treatment. A group of four bleomycin treated and a group of four non-bleomycin treated mice received no TM.
Three experiments were carried out. Experiment 1 comprised four groups of three mice each. Group 1 received bleomycin only, group 2 received bleomycin and TM therapy, group 3 received saline in the trachea rather than bleomycin, and group 4 received TM therapy only. The mice in groups 2 and 4 each received 1.2 mg of TM per day for four days prior to bleomycin, and then were given 0.9 mg TM per day until sacrifice at seven days after bleomycin.
Experiment 2 comprised four groups of five mice each. The four groups were assigned as in experiment 1 to bleomycin, bleomycin and TM, saline rather than bleomycin, and TM only. Groups 2 and 4 were started on TM five days after bleomycin treatment at a dose of 1.2 mg per day for four days, and then 0.9 mg per day until sacrifice at day 21.

cancer patients = conditions: clinical phase ½ study of metastatic and advanced cancers; cited from earlier work

## [SH-].[SH-].[S]=[Mo]=[S] [TM, tetrathiomolybdate]
[1]
  VEGF peak: strong inhibition
  retinal neovascularization: dramatic reduction
[2]; TM after diabetes is induced
  renal fibrosis: mitigates the renal fibrosis
[2]; TM before streptozotocin
  pancreatic damage: mitigates pancreatic damage
Con A mouse model; Ex 4, TM 0.7 mg/mouse/day from 7 days before ConA, 28 days
  ConA induced increase of serum alanine transaminase (ALT): almost completely inhibits
Con A mouse model; Con A + TM, 24 h after 1st Con A injection
  Serum ALT: 52 Sigma-Frankel units
Con A mouse model; Con A + TM, after 2nd injection
  Serum ALT: 50 Sigma-Frankel units
Con A mouse model; Con A + TM, after 3rd injection
  Serum ALT: 63 Sigma-Frankel units
Con A mouse model; Con A + TM, n 4
  Serum ALT, Mean: 74^2,3 Sigma-Frankel units
Con A mouse model; TM only control, 24 h after 1st injection
  Serum ALT: 85 Sigma-Frankel units
Con A mouse model; TM only control, after 2nd injection
  Serum ALT: 39 Sigma-Frankel units
Con A mouse model; TM only control, after 3rd injection
  Serum ALT: 49 Sigma-Frankel units
Con A mouse model; TM only control, n 3
  Serum ALT, Mean: 38 Sigma-Frankel units
Con A mouse model; Ex 5 Exp 2, TM started after four weeks of weekly Con A, Con A continued
  ALT values: returned to normal
[3]; Ex 1 Exp 1, Bleomycin/TM group, TM 0.7 mg/mouse/day gavage from 7 days before bleomycin
  Weight: 21.2 ± 0.8 g
[3]; Ex 1 Exp 1, Bleomycin/TM group
  Hematocrit: 39.7 ± 2.6
[3]; Ex 1 Exp 1, TM alone (group 4)
  effect of TM alone on weight: tended to produce some weight loss
[3]; Ex 1 Exp 1, TM only group (no bleomycin), 0.7 mg/mouse/day
  Weight: 20.4 ± 1.0 g
[3]; Ex 1 Exp 1, TM only group
  Hematocrit: 44.1 ± 1.0
[3]; Ex 1 Exp 1, bleomycin/TM group
  protection against bleomycin induced weight loss: protected against some of the bleomycin induced weight loss
[3]; 0.3 mg TM dose
  protection against weight loss from bleomycin: only slightly protective
[3]; 0.5 mg TM dose
  protection against weight loss from bleomycin: intermediately protective
[3]; 0.7 mg TM dose
  protection against weight loss from bleomycin: intermediately protective
[3]; 0.9 mg TM dose
  protection against weight loss from bleomycin: fully protective
[3]; Ex 2 Exp 1, sacrifice day 7
  mean weight in the bleomycin/TM group: almost exactly the same as the saline control group
[3]; Ex 2 Exp 2, TM group
  mean hematocrit: 43.8%
[3]; Ex 2 Exp 2, bleomycin/TM group, TM started 5 days after bleomycin
  mean weight at the time of sacrifice: 19.6 g
[3]; Ex 2 Exp 2, bleomycin/TM group
  mean hematocrit: 44.3%
Cancer patients
  average freedom from progression in evaluable patients: 11 months
